Measurements: US5767268A, “Sulfuric acid esters of amino sugars” (Hoffmann-La Roche Inc., priority 1995, dated 1998)
Where a name gives a salt, the structure may show the parent alone. Read-outs that look alike come from different tables or passages of the source.

Legend:
[1] = biological target: T1, thrombin (Homo sapiens, UniProt P00734); type: biochemical
T1 construct: purchased Roche Basle (Thrombin Reagent)
Protocol: (§1) Inhibition of thrombin or Factor Xa in the Chromogen Substrate Test (Teien et al., Thrombosis Research 10, 399-410 (1977)): The determination was effected in a Cobas-Bio centrifugal automatic spectrophotometer. The buffer solution used consisted of 50 mM Tris buffer, 180 mM NaCl, 7.5 mM EDTA Na2, 1% PEG 6000 and 0.02% Tween 80, pH 8.4. The test solution consisted of 50 μl of buffer, 30 μl of antithombin III (1U/ml, Kabi Diagnostica) and 20 μl of plasma which contained various concentrations of test compounds. 30 μl of sample solution and 20 μl of water with 180 μl of thrombin (1U/ml, Thrombin Reagent Roche Basle) were added to the test cuvette in the automatic analyzer. After incubation at 37° C. for 240 seconds, 60 μl of S-2238 (H-D-Phe-Pip-Arg-NH.pNA, Kabi Diagnostica, Mondal, Sweden, 0.75 mM in water) and 20 μl of water were added. The liberation of pNA (p-nitro-aniline) was followed during 60 seconds at 405 nm in 10 second intervals in comparison to water as the blank.

[2] = biological target: T2, Factor Xa (Bos taurus, UniProt P00743); assay: Blood coagulation inhibition: inhibition of Factor Xa in the Chromogen Substrate Test; type: biochemical
T2 sequence (P00743 41-180 limits assumed): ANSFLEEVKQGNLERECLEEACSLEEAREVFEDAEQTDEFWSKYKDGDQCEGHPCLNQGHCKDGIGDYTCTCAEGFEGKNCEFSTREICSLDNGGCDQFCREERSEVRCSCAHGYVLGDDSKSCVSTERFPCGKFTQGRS
Protocol: as §1
The inhibition of Factor Xa was measured in the same manner using a solution of Factor Xa (2.8 nkat/ml and 2 mM S-2222 (Bz-CO-Ile-Glu-Arg-NH.pNA, Kabi Diagnostica) in water in place of thrombin and, respectively, S-2238.

[3] = test system: rat smooth muscle cells; assay: Antiproliferative activity (ri, relative to heparin) in rat smooth muscle cells; type: cell-based; set-up: key: growth inhibition relative to heparin at 100 μg/ml, same experiment; details: 100 μg/ml, 48 h, relative to heparin at 100 μg/ml in the same experiment
Protocol: Antiproliferative Activity
The antiproliferative activity of a substance is expressed as the ri value which is a comparative value to the corresponding activity of heparin and which was determined in cell cultures as follows: rat smooth muscle cells were applied to cell culture plates in a density of 8×10^3 cells/well (medium: DMEM with 10% FCS. Cultivation at 37° C. and 5% CO2). After 4 hours, the number of adhered cells was determined and the substances to be tested (100 μg/ml, dissolved in H2 O) were added. […] Subsequently, the cells were incubated for 48 h. and thereafter the cell count was determined once more.
The inhibition i of the cell growth, that is, the reduction in the growth rate of the cells in percent compared to the control, was calculated from these values. [formula] the growth rate μbeing calculated as [formula] in which Z is the number of cells and d is the time in days.
Finally, ri --the relative inhibitory activity--which expresses the activity of a substance (at 100 μg/ml) in comparison to the activity of heparin in the same concentration in the same experiment, was calculated: [formula] Blood Coagulation Inhibition

[4] = read-out: Anticoagulative Activity IC50 Thrombin; with antithrombin III and plasma, S-2238 substrate, 37° C., pH 8.4
[5] = read-out: Anticoagulative Activity IC50 Factor Xa; with antithrombin III and plasma, S-2222 substrate
[6] = with antithrombin III and plasma, S-2238 substrate, 37° C., pH 8.4
[7] = with antithrombin III and plasma, S-2222 substrate

In the case of O=C(NC[C@H]1O[C@H](OCc2ccccc2)[C@H](NC(=O)c2ccc(N(CCOS(=O)(=O)O)C[C@H](OS(=O)(=O)O)[C@@H](OS(=O)(=O)O)[C@H](OS(=O)(=O)O)[C@@H](COS(=O)(=O)O)OS(=O)(=O)O)c([N+](=O)[O-])c2)[C@@H](OS(=O)(=O)O)[C@@H]1OS(=O)(=O)O)c1cccc(C(=O)NC[C@H]2O[C@H](OCc3ccccc3)[C@H](NC(=O)c3ccc(N(CCOS(=O)(=O)O)C[C@H](OS(=O)(=O)O)[C@@H](OS(=O)(=O)O)[C@H](OS(=O)(=O)O)[C@@H](COS(=O)(=O)O)OS(=O)(=O)O)c([N+](=O)[O-])c3)[C@@H](OS(=O)(=O)O)[C@@H]2OS(=O)(=O)O)c1 [Example 36, Isophthalic acid bis-[[benzyl 2,6-didesoxy-2-[4-[(2-hydroxysulfonyloxy-ethyl)-2,3,4,5,6-penta-O-sulfo-D-glucit-1-yl)-amino]-3-nitro-benzoylamino]-3,4-di-O-sulfo-a-D-glucopyranosid-6-yl]-amide] hexadecasodium salt], the IC50 [1, 4] is reported as greater than 371 µM, the IC50 [2, 5] is reported as greater than 371 µM and the “Antiproliferative Activity ri (relative inhibitory activity versus heparin)” value [3] is reported as 2.1.

CN(C[C@H](OS(=O)(=O)O)[C@@H](OS(=O)(=O)O)[C@H](OS(=O)(=O)O)[C@@H](COS(=O)(=O)O)OS(=O)(=O)O)c1ccc(C(=O)N[C@H]2[C@@H](OCc3ccccc3)O[C@H](CNC(=O)c3cccc(C(=O)NC[C@H]4O[C@H](OCc5ccccc5)[C@H](NC(=O)c5ccc(N(C)C[C@H](OS(=O)(=O)O)[C@@H](OS(=O)(=O)O)[C@H](OS(=O)(=O)O)[C@@H](COS(=O)(=O)O)OS(=O)(=O)O)c([N+](=O)[O-])c5)[C@@H](OS(=O)(=O)O)[C@@H]4OS(=O)(=O)O)c3)[C@@H](OS(=O)(=O)O)[C@@H]2OS(=O)(=O)O)cc1[N+](=O)[O-] [Example 35, Isophthalic acid bis-[[benzyl 2,6-didesoxy-2-[4-[methyl (2,3,4,5,6-penta-O-sulfo-D-glucit-1-yl)-amino]-3-nitro-benzoylamino]-3,4-di-O-sulfo-a-D-glucopyranosid-6-yl]-amide] tetradecasodium salt] was tested, and the IC50 [1, 4] was greater than 404 µM, the IC50 [2, 5] was greater than 404 µM and the “Antiproliferative Activity ri (relative inhibitory activity versus heparin)” value [3] was 2.5.

With CC(=O)Nc1cc(C(=O)N[C@H]2[C@@H](OCc3ccccc3)O[C@H](CNC(=O)c3cccc(C(=O)NC[C@H]4O[C@H](OCc5ccccc5)[C@H](NC(=O)c5ccc(N(CCOS(=O)(=O)O)C[C@H](OS(=O)(=O)O)[C@@H](OS(=O)(=O)O)[C@H](OS(=O)(=O)O)[C@@H](COS(=O)(=O)O)OS(=O)(=O)O)c(NC(C)=O)c5)[C@@H](OS(=O)(=O)O)[C@@H]4OS(=O)(=O)O)c3)[C@@H](OS(=O)(=O)O)[C@@H]2OS(=O)(=O)O)ccc1N(CCOS(=O)(=O)O)C[C@H](OS(=O)(=O)O)[C@@H](OS(=O)(=O)O)[C@H](OS(=O)(=O)O)[C@@H](COS(=O)(=O)O)OS(=O)(=O)O [Example 38, Isophthalic acid bis-[[benzyl 2-[3-acetylamino-4-[(2,3,4,5,6-penta-O-sulfo-D-glucit-1-yl)-(2-sulfonyloxy-ethyl)-amino]-benzoylamino]-2,6-didesoxy-3,4-di-O-sulfo-a-D-glucopyranosid-6-yl]-amide] hexadecasodium salt] the IC50 [1, 4] was greater than 368 µM, the IC50 [2, 5] was greater than 368 µM and the “Antiproliferative Activity ri (relative inhibitory activity versus heparin)” value [3] was 1.8.

O=C(NC[C@H]1O[C@H](OCc2ccccc2)[C@H](NC(=O)c2ccc(NC[C@H](OS(=O)(=O)O)[C@@H](OS(=O)(=O)O)[C@H](OS(=O)(=O)O)[C@@H](COS(=O)(=O)O)OS(=O)(=O)O)c([N+](=O)[O-])c2)[C@@H](OS(=O)(=O)O)[C@@H]1OS(=O)(=O)O)c1cccc(C(=O)NC[C@H]2O[C@H](OCc3ccccc3)[C@H](NC(=O)c3ccc(NC[C@H](OS(=O)(=O)O)[C@@H](OS(=O)(=O)O)[C@H](OS(=O)(=O)O)[C@@H](COS(=O)(=O)O)OS(=O)(=O)O)c([N+](=O)[O-])c3)[C@@H](OS(=O)(=O)O)[C@@H]2OS(=O)(=O)O)c1 [Example 33, Isophthalic acid bis-[[benzyl 2,6-didesoxy-2-[4-(2,3,4,5,6-penta-O-sulfo-D-glucit-1-ylamino)-3-nitro-benzoylamino]-3,4-di-O-sulfo-a-D-glucopyranosid-6-yl]-amide] tetradecasodium salt] was tested, and the IC50 [1, 4] was greater than 409 µM, the IC50 [2, 5] was greater than 409 µM and the “Antiproliferative Activity ri (relative inhibitory activity versus heparin)” value [3] was 1.5.

O=C(N[C@H]1[C@@H](OCc2ccccc2)O[C@H](CN2C(=O)c3ccc4c5c(ccc(c35)C2=O)C(=O)N(C[C@H]2O[C@H](OCc3ccccc3)[C@H](NC(=O)c3ccc(NC[C@H](OS(=O)(=O)O)[C@@H](OS(=O)(=O)O)[C@H](OS(=O)(=O)O)[C@@H](COS(=O)(=O)O)OS(=O)(=O)O)c([N+](=O)[O-])c3)[C@@H](OS(=O)(=O)O)[C@@H]2OS(=O)(=O)O)C4=O)[C@@H](OS(=O)(=O)O)[C@@H]1OS(=O)(=O)O)c1ccc(NC[C@H](OS(=O)(=O)O)[C@@H](OS(=O)(=O)O)[C@H](OS(=O)(=O)O)[C@@H](COS(=O)(=O)O)OS(=O)(=O)O)c([N+](=O)[O-])c1 [Example 34, 2,7-Bis-[benzyl 2,6-didesoxy-2-[3-nitro-4-(2,3,4,5,6-penta-O-sulfo-D-glucit-1-ylamino)-benzoylamino]-3,4-di-O-sulfo-a-D-1 5 glucopyranosid-6-yl]-1,2,3,6,7,8-hexahydro-benzo[lmn][3,8] phenanthroline-1,3,6,8-tetraone tetradecasodium salt] was tested, and the IC50 [1, 4] was greater than 393 µM, the IC50 [2, 5] was greater than 393 µM and the “Antiproliferative Activity ri (relative inhibitory activity versus heparin)” value [3] was 3.9.

With “Biphenyl-4,4'-dicarboxylic acid bis-[[(Z)-benzyl 2,6-didesoxy-3,4-di-O-sulfo-6-(3-desoxy-2,4,5,6-tetra-0-sulfo-D-erythro-hex-2-enonoylamino)-a-D-glucopyranosid-2-yl]-amide] dodecasodium salt [Example 15]” the “Anticoagulative Activity IC50 Thrombin” value [1, 6] was greater than 1000 µg/mL, the “Anticoagulative Activity IC50 Factor Xa” value [2, 7] was greater than 1000 µg/mL and the “Antiproliferative Activity ri (relative inhibitory activity versus heparin)” value [3] was 1.8.

With O=C(N[C@H]1[C@@H](OCc2ccccc2)O[C@H](CNC(=O)[C@H](OS(=O)(=O)O)[C@@H](OS(=O)(=O)O)[C@H](OS(=O)(=O)O)[C@@H](COS(=O)(=O)O)OS(=O)(=O)O)[C@@H](OS(=O)(=O)O)[C@@H]1OS(=O)(=O)O)c1ccc(/C=C\c2ccc(C(=O)N[C@H]3[C@@H](OCc4ccccc4)O[C@H](CNC(=O)[C@H](OS(=O)(=O)O)[C@@H](OS(=O)(=O)O)[C@H](OS(=O)(=O)O)[C@@H](COS(=O)(=O)O)OS(=O)(=O)O)[C@@H](OS(=O)(=O)O)[C@@H]3OS(=O)(=O)O)cc2)cc1 [Example 23, (Z)-stilbene-4,4'-dicarboxylic acid bis-[[benzyl 2,6-didesoxy-6-(2,3,4,5,6-penta-O-sulfo-D-gluconoylamino)-3,4-di-O-sulfo-α-D-glucopyranosid-2-yl]-amide] tetradecasodium salt] the IC50 ([1]; with antithrombin III and plasma, S-2238 substrate, 37° C., pH 8.4; read-out: Anticoagulative Activity IC50 Thrombin) was greater than 445 µM, the IC50 ([2]; with antithrombin III and plasma, S-2222 substrate; read-out: Anticoagulative Activity IC50 Factor Xa) was greater than 445 µM and the “Antiproliferative Activity ri (relative inhibitory activity versus heparin)” value [3] was 1.8.

In the case of Heparin [reference compound], the “Anticoagulative Activity IC50 Thrombin” value [1, 6] is reported as 1.9 µg/mL, the “Anticoagulative Activity IC50 Factor Xa” value [2, 7] is reported as 2.7 µg/mL and the “Antiproliferative Activity ri (relative inhibitory activity versus heparin)” value [3] is reported as 1.0.

In the case of O=C(NC[C@H]1O[C@H](OCc2ccccc2)[C@H](NC(=O)c2ccc(NC[C@H](OS(=O)(=O)O)[C@@H](OS(=O)(=O)O)[C@H](OS(=O)(=O)O)[C@@H](COS(=O)(=O)O)OS(=O)(=O)O)c([N+](=O)[O-])c2)[C@@H](OS(=O)(=O)O)[C@@H]1OS(=O)(=O)O)c1ccc(/C=C/c2ccc(C(=O)NC[C@H]3O[C@H](OCc4ccccc4)[C@H](NC(=O)c4ccc(NC[C@H](OS(=O)(=O)O)[C@@H](OS(=O)(=O)O)[C@H](OS(=O)(=O)O)[C@@H](COS(=O)(=O)O)OS(=O)(=O)O)c([N+](=O)[O-])c4)[C@@H](OS(=O)(=O)O)[C@@H]3OS(=O)(=O)O)cc2Cl)cc1 [Example 32, (E)-2-Chloro-stilbene-4,4'-dicarboxylic acid bis-[[benzyl 2,6-didesoxy-2-[4-(2,3,4,5,6-penta-O-sulfo-D-glucit-1-ylamino)-3-nitro-benzoylamino]-3,4-di-O-sulfo-a-D-glucopyranosid-6-yl]-amide] tetradecasodium salt], the IC50 [1, 4] is reported as greater than 387 µM, the IC50 [2, 5] is reported as greater than 387 µM and the “Antiproliferative Activity ri (relative inhibitory activity versus heparin)” value [3] is reported as 1.4.
